Values of other authors in patent publication EP0054589B1, “Organic phosphoric acid ester derivatives, a process for preparing the same and insecticidal, miticidal or nematocidal compositions containing the same” (priority 1980, dated 1982).

Key:
Details in all cases: U.S. Patent No. 3,969,438; cited from earlier work
[1] = system: smaller tea tortrix
[2] = system: rice stem borer
[3] = system: diamond back moth
[4] = system: apple leaf miner
[5] = system: tobacco cutworm

CCCSP(=O)(OCC)Oc1ccc2c(C)cc(=O)oc2c1 (centres unmarked)
pesticidal effect on smaller tea tortrix [1]: to some extent | pesticidal effect on rice stem borer [2]: to some extent | pesticidal effect on diamond back moth [3]: to some extent | pesticidal effect on apple leaf miner [4]: less effective | pesticidal effect on tobacco cutworm [5]: to some extent
